Laboratory results: patent publication US20090088462A1, “Pharmaceutical Composition for Enhancing Adiponectin Production” (Daiichi Sankyo Company, Limited, priority 2005, published 2009)
Where a name gives a salt, the structure may show the parent alone.

Test system: adiponectin
Test: Comparative test for adiponectin production enhancing effect: plasma adiponectin concentration by radioimmunoassay
Type: in vivo
Conditions: female db/db mice, one week oral; Compound A 0.3 mg/kg vs B 3 mg/kg (P<0.001) and vs C 30 mg/kg (P<0.01), Tukey's multiple comparison test
Protocol: Plasma glucose levels and plasma adiponectin concentrations were compared between each of the groups respectively. The plasma adiponectin concentration was measured using a radioimmunoassay kit (Mouse Adiponectin RIA Kit, Linco Research, Inc.). Plasma was diluted by 100 times using a buffer provided with the kit, and measurement was conducted using the diluted plasma (5 μL) (final dilution rate: 2000 times). The radioactivity was measured using a gamma counter, and adiponectin concentration was calculated from the measured radioactivity (measurement unit: μg/mL).

COc1ccc2nc(COc3ccc(CC4SC(=O)NC4=O)cc3)n(C)c2c1 (stereo not shown) [Compound A, 5-[4-(6-Methoxy-1-methyl-1H-benzimidazol-2-ylmethoxy)benzyl]thiazolidine-2,4-dione hydrochloride]
plasma adiponectin concentration compared with Compound B and Compound C administration groups: significant increasing effect
